Measurements from publication PMC6215995 (International Journal for Parasitology: Drugs and Drug …, 2018).
Like-named read-outs stand apart in the source and are kept apart here. Marks after values point to notes of the source that are not given here.

Tests used:
P. falciparum 3D7 = test: Antiplasmodial SYBR green assay, CQ-sensitive strain; assay type: cell-based; details: for Selective index 3D7: ratio between MDL50 and IC50, 3D7
Protocol: Briefly, the plates were centrifuged at 700g for 5 min at room temperature to remove the medium, washed with PBS and incubated for 30 min with lysis buffer solution [2.4228 g TRIS, ultra-pure for 20 mM solution, pH 7.5; 1.8612 g of EDTA 5 mM ultrapure for 5 mM solution; 80 μg Saponin (0.008% w/v); 800 μL of Triton X-100 (0.08% v/v); water Type I] and SYBR green I DNA stain (1:20000). The fluorescence of uninfected erythrocytes was considered as background.
(§1) The half-maximal drug inhibitory concentration (IC50) was estimated by curve fitting using the software from the OriginLab Corporation (USA) and compared to the parasite growth in the drug-free medium.

P. falciparum K1 = test: Antiplasmodial SYBR green assay, multidrug-resistant strain; assay type: cell-based; details: for Selective index K1: ratio between MDL50 and IC50, K1
Protocol: The freshly sorbitol synchronized ring stages were immediately incubated with the test compounds at various concentrations (from 10 to 0.152 μM or 1.0–0.0152 μM) that were previously solubilized in 0.05% dimethyl sulfoxide (DMSO) (v/v) ([Lambros and Vanderberg, 1979]). […] The antiplasmodial activity of the compounds was measured through SYBR green assay ([Smilkstein et al., 2004]). Briefly, the plates were centrifuged at 700g for 5 min at room temperature to remove the medium, washed with PBS and incubated for 30 min with lysis buffer solution [2.4228 g TRIS, ultra-pure for 20 mM solution, pH 7.5; 1.8612 g of EDTA 5 mM ultrapure for 5 mM solution; 80 μg Saponin (0.008% w/v); 800 μL of Triton X-100 (0.08% v/v); water Type I] and SYBR green I DNA stain (1:20000). The fluorescence of uninfected erythrocytes was considered as background. Fluorescence was measured on fluorimeter (SpectraMax340PC384) at 485/535 nm.
as §1

BGM-VN = details: MTT, 24 h
Protocol: The compounds (20 μL), at various concentrations (400–1.0 μM), were placed in the 96-well plates, incubated with the cultured cells for 24 h under a 5% CO2 atmosphere at 37 °C and then the 3-(4,5-dimethylthiazol-2-yl)-2,5-diphenyltetrazolium bromide (MTT) solution (5 mg/mL; 20 μL/well for 3 h) was used to evaluate the mitochondrial viability. The supernatants were carefully removed and 100 μL DMSO were added to each well and mixed to solubilize the formazan crystals. The optical density was determined at 570 and 630 nm (background) (SpectraMax340PC384). The cell viability was expressed as the percentage of the control absorbance in the untreated cells after subtracting the appropriate background. Each test was performed in triplicate in at least two different experiments.

β-hematin formation = test: Inhibition of β-hematin formation assay; assay type: biochemical; details: MOG lipid catalyst, sodium acetate pH 4.8, 37 °C, 2 h; read-out: β-hematin inhibition IC50 (mM)± SD
Protocol: The assay was performed using a lipid as a catalyst to promote crystallization ([Pisciotta et al., 2007]; [Fitch et al., 1999]). Briefly, drug stock solutions were prepared in DMSO and were used at a final concentration of up to 30 mM. […] After incubation for 30 min at room temperature, the amount of solubilized monomeric heme was determined by measuring the absorbance at 405 nm. […] The absorbance was read at 405 nm to determine the total amount of heme present in each well. The inhibition of heme crystallization was determined as a function of the amount of monomeric heme that was not crystallized divided by the total amount of heme present in the assay mixture. The results are expressed as IC50 values based on the percentage inhibition of β-hematin formation by the compounds […] and DAQ.

P. berghei NK65 = test: Suppressive test in P. berghei infected mice; assay type: in vivo; details: for Reduction of parasitemia until day 11 after infection / Mice survival in comparison with the non-treated control / Parasitemia on day 5 / Parasitemia %reduction on day 5 / Parasitemia on day 7 / Parasitemia %reduction on day 7 / Parasitemia on day 9 / Parasitemia %reduction on day 9 / Parasitemia on day 11 / Parasitemia %reduction on day 11 / Parasitemia on day 13 / Parasitemia %reduction on day 13 / Parasitemia on day 15 / Parasitemia %reduction on day 15 / Survival: three consecutive days; for Mice survival in comparison with the non-treated control: Mann-Whitney test p < 0.05; for Parasitemia %reduction on day 5: day 5, vs non treated; for Parasitemia %reduction on day 7: day 7, vs non treated; for Parasitemia %reduction on day 9: day 9, vs non treated; for Parasitemia %reduction on day 11: day 11, vs non treated; for Parasitemia %reduction on day 13: day 13, vs non treated; for Parasitemia %reduction on day 15: day 15, vs non treated
Protocol: The P. berghei NK65 strain was obtained as a donation from New York University and maintained through weekly blood passages. For the experiments, groups of up to 30 mice were inoculated i.p. with 1 × 10^5 infected erythrocytes, kept together for about 24 h, then randomly distributed into groups of five per cage. […] On days 5–15 after the parasite inoculation, blood was taken from the tail of each mouse and used to prepare thin smears that were methanol-fixed, Giemsa-stained, and examined microscopically (1000×) to determine parasitemia. […] The experiments were performed twice.

[1] = Plasmodium falciparum, 3D7 CQ-sensitive strain, read-out: IC50 (nM ± SD) P. falciparum 3D7
[2] = Plasmodium falciparum, K1 multidrug-resistant strain, read-out: IC50 (nM ± SD) P. falciparum K1
[3] = oral 50 mg/kg, followed until day 30
[4] = 3D7 CQ-sensitive strain, read-out: IC50 (nM ± SD) P. falciparum 3D7
[5] = K1 multidrug-resistant strain, read-out: IC50 (nM ± SD) P. falciparum K1
[6] = 20 mg/kg, followed until day 30

| Molecule | IC50 (P. falciparum 3D7; [1]) | Selective index 3D7 (P. falciparum 3D7) | IC50 (P. falciparum K1; [2]) | Selective index K1 (P. falciparum K1) | MLD50 BGM-VN (BGM-VN) | IC50 (β-hematin formation) | Reduction of parasitemia until day 11 after infection (P. berghei NK65; oral 50 mg/kg) | Mice survival in comparison with the non-treated control (P. berghei NK65; oral 50 mg/kg) | Parasitemia on day 5 (P. berghei NK65; oral 50 mg/kg) | Parasitemia on day 7 (P. berghei NK65; oral 50 mg/kg) | Parasitemia %reduction on day 7 (P. berghei NK65; oral 50 mg/kg) | Parasitemia on day 9 (P. berghei NK65; oral 50 mg/kg) | Parasitemia %reduction on day 9 (P. berghei NK65; oral 50 mg/kg) | Parasitemia on day 11 (P. berghei NK65; oral 50 mg/kg) | Parasitemia %reduction on day 11 (P. berghei NK65; oral 50 mg/kg) | Parasitemia on day 13 (P. berghei NK65; oral 50 mg/kg) | Parasitemia %reduction on day 13 (P. berghei NK65; oral 50 mg/kg) | Parasitemia on day 15 (P. berghei NK65; oral 50 mg/kg) | Parasitemia %reduction on day 15 (P. berghei NK65; oral 50 mg/kg) | Survival (P. berghei NK65; [3]) | further results |
| --- | --- | --- | --- | --- | --- | --- | --- | --- | --- | --- | --- | --- | --- | --- | --- | --- | --- | --- | --- | --- | --- |
| NCCNc1ccnc2cc(Cl)ccc12 [CEQ, N-(2-aminoethyl)-7-chloroquinolin-4-amine] | 273 ± 12 nM | 655 | 218 ± 44 nM | 821 | 179 ± 40 µM | 1.2 ± 0.76 mM | 100% | significantly higher | 0.00 | 0.00 | 100% | 0.00 | 100% | 0.00 | 100% | 0.57 | 94% | 4 | 80% | 26 ± 6 ^b | Parasitemia %reduction on day 5 (P. berghei NK65; oral 50 mg/kg): 100% |
| N-(prop-2-enyl)-7-chloroquinoline-4-amine [PCQ] |  |  |  |  | 407 ± 185 µM | 3 ± 3 mM |  | not increased | 1.04 | 4.83 | 10% | 5.75 | 8% | 7.5 | 32% | 7.0 | 32% | 34.5 | 0% | 17 ± 8 | IC50 (P. falciparum 3D7; [4]): 377 ± 14 nM; IC50 (P. falciparum K1; [5]): 405 ± 32 nM; Parasitemia %reduction on day 5 (P. berghei NK65; oral 50 mg/kg, 50 mg/kg): 73% |
| CCN(CC)CCCC(C)Nc1ccnc2cc(Cl)ccc12 (centres unmarked) [CQ, Chloroquine, reference compound] |  |  |  |  |  | 0.76 ± 0.46 mM |  |  |  |  |  |  |  |  |  |  |  |  |  |  | IC50 (P. falciparum 3D7; Plasmodium falciparum, 3D7, read-out: IC50 (nM ± SD) P. falciparum 3D7): 36 ± 12 nM; IC50 (P. falciparum K1; Plasmodium falciparum, K1, read-out: IC50 (nM ± SD) P. falciparum K1): 177 ± 20 nM; Survival in words (P. berghei NK65; [6]): survived until the last day of the experiment; Parasitemia on day 5 (P. berghei NK65; 20 mg/kg): 0.00; Parasitemia %reduction on day 5 (P. berghei NK65; 20 mg/kg): 100%; Parasitemia on day 7 (P. berghei NK65; 20 mg/kg): 0.00; Parasitemia %reduction on day 7 (P. berghei NK65; 20 mg/kg): 100%; Parasitemia on day 9 (P. berghei NK65; 20 mg/kg): 0.00; Parasitemia %reduction on day 9 (P. berghei NK65; 20 mg/kg): 100%; Parasitemia on day 11 (P. berghei NK65; 20 mg/kg): 0.00; Parasitemia %reduction on day 11 (P. berghei NK65; 20 mg/kg): 100%; Parasitemia on day 13 (P. berghei NK65; 20 mg/kg): 0.00; Parasitemia %reduction on day 13 (P. berghei NK65; 20 mg/kg): 100%; Parasitemia on day 15 (P. berghei NK65; 20 mg/kg): 0.00; Parasitemia %reduction on day 15 (P. berghei NK65; 20 mg/kg): 100%; Survival (P. berghei NK65; [6]): >30 ^b; Parasitemia in words (P. berghei NK65; 20 mg/kg, until the last day of evaluation (day 15)): no parasitemia |
| O=C(O)CNc1ccnc2cc(Cl)ccc12 [GIQ, Acid 2-(7-chloroquinolin-4-ylamino) acetic] | > 10000 nM | Inactive | > 10000 nM | Inactive | >1000 µM | 7.6 ± 0.2 mM |  |  |  |  |  |  |  |  |  |  |  |  |  |  | Activity against P. falciparum in words (P. falciparum 3D7; sensitive and resistant parasites, highest dose 10 μM): inactive in all doses tested |
| N-(4-(dimethylamino)but-2-enyl)-7-chloro-quinolin-4-amine [DAQ] |  |  |  |  | 1481 ± 39 µM | 0.15 ± 0.03 mM | 100% | significantly higher | 0.00 | 0.00 | 100% | 0.00 | 100% | 0.00 | 100% | 0.77 | 92% | 3.67 | 82% | 28 ± 1 ^b | IC50 (P. falciparum 3D7; [4]): 46 ± 4 nM; IC50 (P. falciparum K1; [5]): 50 ± 3 nM; Parasitemia %reduction on day 5 (P. berghei NK65; oral 50 mg/kg): 100% |
